Results reported in US11173151B2, “Substituted triazole derivatives and uses thereof” (BAYER AKTIENGESELLSCHAFT, priority 2017, dated 2021).
pIC50: −log10 of the molar value.

Tests used:
[1] = biological target: T1, human V1a receptor (Homo sapiens, UniProt P37288); experiment: Cellular in vitro assay for determining vasopressin receptor activity, V1a receptor cell line (CHO, aequorin luminescence); assay type: cell-based; settings: for pIC50: CHO cell line transfected with human V1a receptor, [Arg]-vasopressin at EC50 concentration, read-out: IC50 hV1a; for ratio IC50 hV2/hV1a: selectivity ratio IC50 hV2 / IC50 hV1a
T1 construct: expressed in transfected cells; host or cells: CHO K1 (ATCC), also stably transfected with a modified aequorin
T1 sequence (P37288 whole entry): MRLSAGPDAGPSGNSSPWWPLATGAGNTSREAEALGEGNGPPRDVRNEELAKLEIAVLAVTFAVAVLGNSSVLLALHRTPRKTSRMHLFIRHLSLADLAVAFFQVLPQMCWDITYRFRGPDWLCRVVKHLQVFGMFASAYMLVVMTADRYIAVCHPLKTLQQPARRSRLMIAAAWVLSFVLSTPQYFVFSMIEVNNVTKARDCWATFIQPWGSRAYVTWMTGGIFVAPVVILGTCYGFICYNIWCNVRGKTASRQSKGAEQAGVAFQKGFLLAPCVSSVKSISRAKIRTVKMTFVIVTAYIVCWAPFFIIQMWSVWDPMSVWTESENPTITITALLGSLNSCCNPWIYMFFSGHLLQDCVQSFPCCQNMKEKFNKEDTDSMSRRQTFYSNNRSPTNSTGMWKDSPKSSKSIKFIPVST
Protocol: (§1) B-1. Cellular In Vitro Assay for Determining Vasopressin Receptor Activity
(§2) The identification of agonists and antagonists of the V1a and V2 vasopressin receptors from humans, rats and dogs as well as the quantification of the activity of the compounds of the invention is carried out using recombinant cell lines. These cell lines originally derive from a hamster's ovary epithelial cell (Chinese Hamster Ovary, CHO K1, ATCC: American Type Culture Collection, Manassas, Va. 20108, USA). The test cell lines constitutively express the human, rat or dog V1a or V2 receptors. In case of the Gαq-coupled V1a receptors, cells are also stably transfected with a modified form of the calcium-sensitive photoproteins aequorin (human and rat V1a) or obelin (dog V1a), which, after reconstitution with the cofactor coelenterazine, emit light when there are increases in free calcium concentrations [Rizzuto R, Simpson A W, Brini M, Pozzan T, Nature 358, 325-327 (1992); Illarionov B A, Bondar V S, Illarionova V A, Vysotski E S, Gene 153 (2), 273-274 (1995)]. The resulting vasopressin receptor cells react to stimulation of the recombinantly expressed V1a receptors by intracellular release of calcium ions, which can be quantified by the resulting photoprotein luminescence. The Gs-coupled V2 receptors are stably transfected into cell lines expressing the gene for firefly luciferase under control of a CRE-responsible promoter. Activation of V2 receptors induces the activation of the CRE-responsive promoter via cAMP increase, thereby inducing the expression of firefly luciferase. The light emitted by photoproteins of V1a cell lines as well as the light emitted by firefly luciferase of V2 cell lines corresponds to the activation or inhibition of the respective vasopressin receptor. The bioluminescence of the cell lines is detected using a suitable luminometer [Milligan G, Marshall F, Rees S, Trends in Pharmacological Sciences 17, 235-237 (1996)].
Vasopressin V1a Receptor Cell Lines:
On the day before the assay, the cells are plated out in culture medium (DMEM/F12, 2% FCS, 2 mM glutamine, 10 mM HEPES, 5 μg/ml coelenterazine) in 384-well microtiter plates and kept in a cell incubator (96% humidity, 5% v/v CO2, 37° C.). On the day of the assay, test compounds in various concentrations are placed for 10 minutes in the wells of the microtiter plate before the agonist [Arg]-vasopressin at EC50 concentration is added. The resulting light signal is measured immediately in a luminometer.
(§3) Table 1A below lists individual IC50 values for the compounds of the invention (including racemic mixtures as well as separated enantiomers) that were obtained from cell lines transfected with the human V1a or V2 receptor: […]

[2] = biological target: T2, human V2 receptor (Homo sapiens, UniProt P30518); experiment: Cellular in vitro assay for determining vasopressin receptor activity, V2 receptor cell line (CHO, CRE-luciferase); assay type: cell-based; settings: CHO cell line transfected with human V2 receptor; [Arg8]-vasopressin at EC50 concentration, 3 hours; read-out: IC50 hV2
T2 construct: expressed in transfected cells; host or cells: CHO K1 (ATCC) expressing firefly luciferase under a CRE-responsive promoter
T2 sequence (P30518 whole entry): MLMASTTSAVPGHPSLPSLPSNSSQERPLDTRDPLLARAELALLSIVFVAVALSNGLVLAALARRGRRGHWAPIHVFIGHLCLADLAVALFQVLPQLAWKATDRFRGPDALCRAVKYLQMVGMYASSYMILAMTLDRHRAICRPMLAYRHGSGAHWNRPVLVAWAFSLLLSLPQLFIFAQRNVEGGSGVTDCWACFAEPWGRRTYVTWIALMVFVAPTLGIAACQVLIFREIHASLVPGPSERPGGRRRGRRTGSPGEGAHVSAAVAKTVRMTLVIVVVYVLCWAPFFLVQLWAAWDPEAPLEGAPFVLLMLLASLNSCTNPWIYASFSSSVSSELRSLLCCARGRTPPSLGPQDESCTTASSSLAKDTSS
Protocol: as §1, §2
Vasopressin V2 Receptor Cell Lines:
On the day before the assay, the cells are plated out in culture medium (DMEM/F12, 2% FCS, 2 mM glutamine, 10 mM HEPES) in 384-well microtiter plates and kept in a cell incubator (96% humidity, 5% v/v CO2, 37° C.). On the day of the assay, test compounds in various concentrations and the agonist [Arg^8]-vasopressin at EC50 concentration are added together to the wells, and plates are incubated for 3 hours in a cell incubator. Upon addition of the cell lysis reagent Triton™ and the substrate luciferin, luminescence of firefly luciferase is measured in a luminometer.
as §3

O=C1CCC(CNc2ccncc2-n2cnc(Cn3nc(-c4ccc(Cl)cc4)n(C[C@H](O)C(F)(F)F)c3=O)n2)N1 (mixture of isomers) [Example 7, 5-(4-Chlorophenyl)-2-({1-[4-({[5-oxopyrrolidin-2-yl]methyl}amino)pyridin-3-yl]-1H-1,2,4-triazol-3-yl}methyl)-4-[(2S)-3,3,3-trifluoro-2-hydroxypropyl]-2,4-dihydro-3H-1,2,4-triazol-3-one]
pIC50 [1]: 5.76
ratio IC50 hV2/hV1a [1]: 2.2
pIC50 [2]: 5.41

CC1(O)CCN(c2ccncc2-n2cnc(Cn3nc(-c4ccc(Cl)cc4)n(C[C@H](O)C(F)(F)F)c3=O)n2)C1 (mixture of isomers) [Example 13, 5-(4-Chlorophenyl)-2-[(1-{4-[3-hydroxy-3-methylpyrrolidin-1-yl]pyridin-3-yl}-1H-1,2,4-triazol-3-yl)methyl]-4-[(2S)-3,3,3-trifluoro-2-hydroxypropyl]-2,4-dihydro-3H-1,2,4-triazol-3-one]
pIC50 [1]: 6.24
ratio IC50 hV2/hV1a [1]: 0.2
pIC50 [2]: 7.04

O=C(Nc1ccncc1-n1cnc(Cn2nc(-c3ccc(Cl)cc3)n(C[C@H](O)C(F)(F)F)c2=O)n1)C1CC1(F)F (mixture of isomers) [Example 29, N-{3-[3-({3-(4-Chlorophenyl)-5-oxo-4-[(2S)-3,3,3-trifluoro-2-hydroxypropyl]-4,5-dihydro-1H-1,2,4-triazol-1-yl}methyl)-1H-1,2,4-triazol-1-yl]pyridin-4-yl}-2,2-difluorocyclopropanecarboxamide]
pIC50 [1]: 7.78
ratio IC50 hV2/hV1a [1]: 22.1
pIC50 [2]: 6.44

O=C(Nc1cccnc1-n1cnc(Cn2nc(-c3ccc(Cl)cc3)n(C[C@H](O)C(F)(F)F)c2=O)n1)C1CC1(F)F (mixture of isomers) [Example 41, N-{2-[3-({3-(4-Chlorophenyl)-5-oxo-4-[(2S)-3,3,3-trifluoro-2-hydroxypropyl]-4,5-dihydro-1H-1,2,4-triazol-1-yl}methyl)-1H-1,2,4-triazol-1-yl]pyridin-3-yl}-2,2-difluorocyclopropanecarboxamide]
pIC50 [1]: 8.46
ratio IC50 hV2/hV1a [1]: 64.4
pIC50 [2]: 6.65

O=C(Nc1cccnc1-n1cnc(Cn2nc(-c3ccc(Cl)cc3)n(C[C@H](O)C(F)(F)F)c2=O)n1)C1CCS(=O)(=O)C1 (mixture of isomers) [Example 50, N-{2-[3-({3-(4-Chlorophenyl)-5-oxo-4-[(2S)-3,3,3-trifluoro-2-hydroxypropyl]-4,5-dihydro-1H-1,2,4-triazol-1-yl}methyl)-1H-1,2,4-triazol-1-yl]pyridin-3-yl}tetrahydrothiophene-3-carboxamide 1,1-dioxide]
pIC50 [1]: 7.69
ratio IC50 hV2/hV1a [1]: 213.0
pIC50 [2]: 5.36

O=C(Nc1cccnc1-n1cnc(Cn2nc(-c3ccc(Cl)cc3)n(CC(O)C(F)(F)F)c2=O)n1)C1CC1F (mixture of isomers) [Example 59, N-{2-[3-({3-(4-Chlorophenyl)-5-oxo-4-[(2S)-3,3,3-trifluoro-2-hydroxypropyl]-4,5-dihydro-1H-1,2,4-triazol-1-yl}methyl)-1H-1,2,4-triazol-1-yl]pyridin-3-yl}-2-fluorocyclopropanecarboxamide]
pIC50 [1]: 8.29
ratio IC50 hV2/hV1a [1]: 185.4
pIC50 [2]: 6.02

O=C(Nc1ncccc1-n1cnc(Cn2nc(-c3ccc(Cl)cc3)n(C[C@H](O)C(F)(F)F)c2=O)n1)C1CC1(F)F (mixture of isomers) [Example 75, N-{3-[3-({3-(4-Chlorophenyl)-5-oxo-4-[(2S)-3,3,3-trifluoro-2-hydroxypropyl]-4,5-dihydro-1H-1,2,4-triazol-1-yl}methyl)-1H-1,2,4-triazol-1-yl]pyridin-2-yl}-2,2-difluorocyclopropanecarboxamide]
pIC50 [1]: 8.18
ratio IC50 hV2/hV1a [1]: 197.0
pIC50 [2]: 5.89

O=C(Nc1ncccc1-n1cnc(Cn2nc(-c3ccc(Cl)cc3)n(C[C@H](O)C(F)(F)F)c2=O)n1)C1CCS(=O)(=O)C1 (mixture of isomers) [Example 82, N-{3-[3-({3-(4-Chlorophenyl)-5-oxo-4-[(2S)-3,3,3-trifluoro-2-hydroxypropyl]-4,5-dihydro-1H-1,2,4-triazol-1-yl}methyl)-1H-1,2,4-triazol-1-yl]pyridin-2-yl}tetrahydrothiophene-3-carboxamide 1,1-dioxide]
pIC50 [1]: 7.48
ratio IC50 hV2/hV1a [1]: 10.2
pIC50 [2]: 6.47

CC1(O)CCN(C(=O)c2ccccc2-n2cnc(Cn3nc(-c4ccc(Cl)cc4)n(C[C@H](O)C(F)(F)F)c3=O)n2)C1 (mixture of isomers) [Example 183, 5-(4-Chlorophenyl)-2-{[1-(2-{[3-hydroxy-3-methylpyrrolidin-1-yl]carbonyl}phenyl)-1H-1,2,4-triazol-3-yl]methyl}-4-[(2S)-3,3,3-trifluoro-2-hydroxypropyl]-2,4-dihydro-3H-1,2,4-triazol-3-one]
pIC50 [1]: 7.06
ratio IC50 hV2/hV1a [1]: 39.8
pIC50 [2]: 5.46

O=C1CCC(NC(=O)c2ccccc2-n2cnc(Cn3nc(-c4ccc(Cl)cc4)n(C[C@H](O)C(F)(F)F)c3=O)n2)CN1 (mixture of isomers) [Example 191]
pIC50 [1]: 7.71
ratio IC50 hV2/hV1a [1]: 192.3
pIC50 [2]: 5.43

NC(CNC(=O)c1ccccc1-n1cnc(Cn2nc(-c3ccc(Cl)cc3)n(C[C@H](O)C(F)(F)F)c2=O)n1)C(F)(F)C(F)F (mixture of isomers) [Example 196, N-[2-Amino-3,3,4,4-tetrafluorobutyl]-2-[3-({3-(4-chlorophenyl)-5-oxo-4-[(2S)-3,3,3-trifluoro-2-hydroxypropyl]-4,5-dihydro-1H-1,2,4-triazol-1-yl}methyl)-1H-1,2,4-triazol-1-yl]benzamide]
pIC50 [1]: 7.66
ratio IC50 hV2/hV1a [1]: 38.9
pIC50 [2]: 6.07

CC1(CNC(=O)c2ccccc2-n2cnc(Cn3nc(-c4ccc(Cl)cc4)n(C[C@H](O)C(F)(F)F)c3=O)n2)CCCO1 (mixture of isomers) [Example 202, 2-[3-({3-(4-Chlorophenyl)-5-oxo-4-[(2S)-3,3,3-trifluoro-2-hydroxypropyl]-4,5-dihydro-1H-1,2,4-triazol-1-yl}methyl)-1H-1,2,4-triazol-1-yl]-N-{[2-methyltetrahydrofuran-2-yl]methyl}benzamide]
pIC50 [1]: 8.37
ratio IC50 hV2/hV1a [1]: 0.9
pIC50 [2]: 8.39

O=C(c1ncccc1-n1cnc(Cn2nc(-c3ccc(Cl)cc3)n(C[C@@H](O)C(F)(F)F)c2=O)n1)N1CCNC(C(F)(F)F)C1 (mixture of isomers) [Example 476, 5-(4-Chlorophenyl)-4-[(2R)-3,3,3-trifluoro-2-hydroxypropyl]-2-{[1-(2-{[3-(trifluoromethyl)piperazin-1-yl]carbonyl}pyridin-3-yl)-1H-1,2,4-triazol-3-yl]methyl}-2,4-dihydro-3H-1,2,4-triazol-3-one]
pIC50 [1]: 6.12
ratio IC50 hV2/hV1a [1]: 133.3

O=C(N[C@H]1C[C@@H]1F)c1ncccc1-n1nc(Cn2nc(-c3ccc(Cl)cc3)n(C[C@@H](O)C(F)(F)F)c2=O)nc1N1CCS(=O)(=O)CC1 (racemic) [Example 487, 3-[3-({3-(4-Chlorophenyl)-5-oxo-4-[(2R)-3,3,3-trifluoro-2-hydroxypropyl]-4,5-dihydro-1H-1,2,4-triazol-1-yl}methyl)-5-(1,1-dioxidothiomorpholin-4-yl)-1H-1,2,4-triazol-1-yl]-N-[2-fluorocyclopropyl]pyridine-2-carboxamide]
pIC50 [1]: 5.28
ratio IC50 hV2/hV1a [1]: 18.9

O=C1CN(C(=O)c2ncccc2-n2cnc(Cn3nc(-c4ccc(Cl)cc4)n(C[C@@H](O)C(F)(F)F)c3=O)n2)CCN1 [Example 469, 4-({3-[3-({3-(4-Chlorophenyl)-5-oxo-4-[(2R)-3,3,3-trifluoro-2-hydroxypropyl]-4,5-dihydro-1H-1,2,4-triazol-1-yl}methyl)-1H-1,2,4-triazol-1-yl]pyridin-2-yl}carbonyl)piperazin-2-one]
pIC50 [1]: 6.25
ratio IC50 hV2/hV1a [1]: 178.6
